According to patent publication US12539292B2, “BRM targeting compounds and associated methods of use” (Arvinas Operations, Inc., priority 2018, dated 2026):
Read-outs that look alike come from different tables or passages of the source.

Molecular target: T1, BRM (Homo sapiens, UniProt P51531)
T1 construct: In-Cell Western Screen of BRM Degradation in SW1573 Cells; endogenous in cells; host or cells: SW1573
Assay: In-cell Western screen of BRM degradation in SW1573 cells (Dmax and DC50)
Type: cell-based
Details: BRM degradation, SW1573 cells
Outline: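 SW1573, overnight cpd exposure (18-20 h), 0.1% DMSO final. PFA fix, 0.5% Triton permeabilization, block; IR secondaries at 800/680 nm. Odyssey read → Dmax, DC50.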

[1] = Table 2D, read-out: **Dmax (%) (% degraded)

T1 sequence (P51531 whole entry): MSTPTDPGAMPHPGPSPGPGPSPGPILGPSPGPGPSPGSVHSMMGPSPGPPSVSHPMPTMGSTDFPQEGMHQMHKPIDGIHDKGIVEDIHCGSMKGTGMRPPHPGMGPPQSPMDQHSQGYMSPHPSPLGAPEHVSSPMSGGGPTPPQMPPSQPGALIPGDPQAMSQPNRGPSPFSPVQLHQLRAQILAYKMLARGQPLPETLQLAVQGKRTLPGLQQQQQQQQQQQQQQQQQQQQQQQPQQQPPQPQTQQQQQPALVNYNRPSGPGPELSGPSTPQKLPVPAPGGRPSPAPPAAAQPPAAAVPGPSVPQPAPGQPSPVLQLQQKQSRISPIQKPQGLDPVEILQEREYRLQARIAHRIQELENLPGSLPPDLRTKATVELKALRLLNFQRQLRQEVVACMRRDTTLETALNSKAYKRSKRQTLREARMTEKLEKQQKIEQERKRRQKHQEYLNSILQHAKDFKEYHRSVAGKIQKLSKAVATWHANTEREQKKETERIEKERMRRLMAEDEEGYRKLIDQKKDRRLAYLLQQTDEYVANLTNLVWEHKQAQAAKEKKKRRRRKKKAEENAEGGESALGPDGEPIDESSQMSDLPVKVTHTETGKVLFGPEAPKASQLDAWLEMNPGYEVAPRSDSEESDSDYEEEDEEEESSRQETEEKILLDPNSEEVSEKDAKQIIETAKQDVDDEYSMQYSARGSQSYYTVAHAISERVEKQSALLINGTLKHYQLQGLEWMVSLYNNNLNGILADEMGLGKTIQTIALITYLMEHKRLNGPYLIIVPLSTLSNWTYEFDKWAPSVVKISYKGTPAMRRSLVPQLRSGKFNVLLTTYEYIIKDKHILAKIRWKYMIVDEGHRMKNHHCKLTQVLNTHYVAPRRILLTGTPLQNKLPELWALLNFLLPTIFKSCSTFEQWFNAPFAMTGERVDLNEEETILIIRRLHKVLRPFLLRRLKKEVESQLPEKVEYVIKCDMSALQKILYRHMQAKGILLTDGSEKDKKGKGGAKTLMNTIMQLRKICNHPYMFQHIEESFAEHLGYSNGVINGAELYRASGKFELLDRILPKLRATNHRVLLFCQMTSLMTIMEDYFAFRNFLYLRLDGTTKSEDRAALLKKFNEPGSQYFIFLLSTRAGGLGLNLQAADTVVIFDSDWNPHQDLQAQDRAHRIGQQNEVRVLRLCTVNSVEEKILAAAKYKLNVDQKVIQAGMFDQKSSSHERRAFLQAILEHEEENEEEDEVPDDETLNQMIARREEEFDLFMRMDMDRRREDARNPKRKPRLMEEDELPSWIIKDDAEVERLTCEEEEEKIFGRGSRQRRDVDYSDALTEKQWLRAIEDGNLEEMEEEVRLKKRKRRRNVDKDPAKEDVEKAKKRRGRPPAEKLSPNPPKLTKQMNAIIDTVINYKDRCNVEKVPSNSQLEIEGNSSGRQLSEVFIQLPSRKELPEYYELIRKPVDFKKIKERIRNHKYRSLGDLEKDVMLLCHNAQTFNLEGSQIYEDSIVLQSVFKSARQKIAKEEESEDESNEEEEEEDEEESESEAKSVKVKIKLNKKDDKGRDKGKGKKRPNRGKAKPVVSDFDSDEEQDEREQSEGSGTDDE

SMILES	DC50 (Table 2D, read-out: *DC50)	Dmax [1]	DC50 (read-out: DC50)	Dmax (read-out: Dmax (% degraded))
Cc1ncsc1-c1ccc([C@H](C)NC(=O)[C@@H]2C[C@@H](O)CN2C(=O)[C@H](c2cc(N3CCC(OC4CCN([C@H]5C[C@H](CN6CCOC7(CCN(c8cc(-c9ccccc9O)nnc8N)CC7)C6)C5)CC4)CC3)no2)C(C)C)cc1 [compound 615, (2S,4R)-1-((S)-2-(3-(4-((1-((1r,3S)-3-((9-(3-amino-6-(2-hydroxyphenyl)pyridazin-4-yl)-1-oxa-4,9-diazaspiro[5.5]undecan-4-yl)methyl)cyclobutyl)piperidin-4-yl)oxy)piperidin-1-yl)isoxazol-5-yl)-3-methylbutanoyl)-4-hydroxy-N-((S)-1-(4-(4-methylthiazol-5-yl)phenyl)ethyl)pyrrolidine-2-carboxamide]	> 30 nM			
Cc1ncsc1-c1ccc([C@H](C)NC(=O)[C@@H]2C[C@@H](O)CN2C(=O)[C@@H](c2cc(N3CCC(OC4CCN([C@H]5C[C@H](CN6CCOC7(CCN(c8cc(-c9ccccc9O)nnc8N)CC7)C6)C5)CC4)CC3)no2)C(C)C)cc1 [compound 616, (2S,4R)-1-((R)-2-(3-(4-((1-((1r,3R)-3-((9-(3-amino-6-(2-hydroxyphenyl)pyridazin-4-yl)-1-oxa-4,9-diazaspiro[5.5]undecan-4-yl)methyl)cyclobutyl)piperidin-4-yl)oxy)piperidin-1-yl)isoxazol-5-yl)-3-methylbutanoyl)-4-hydroxy-N-((S)-1-(4-(4-methylthiazol-5-yl)phenyl)ethyl)pyrrolidine-2-carboxamide]	< 2.5 nM	> 75%		
Cc1ncsc1-c1ccc([C@H](C)NC(=O)[C@@H]2C[C@@H](O)CN2C(=O)[C@H](c2cc(N3CCC(CN4CCC(O[C@H]5C[C@H](N6CCOC7(CCN(c8cc(-c9ccccc9O)nnc8N)CC7)C6)C5)CC4)CC3)no2)C(C)C)cc1 [compound 617, (2S,4R)-1-((S)-2-(3-(4-((4-((1r,3r)-3-(9-(3-amino-6-(2-hydroxyphenyl)pyridazin-4-yl)-1-oxa-4,9-diazaspiro[5.5]undecan-4-yl)cyclobutoxy)piperidin-1-yl)methyl)piperidin-1-yl)isoxazol-5-yl)-3-methylbutanoyl)-4-hydroxy-N-((S)-1-(4-(4-methylthiazol-5-yl)phenyl)ethyl)pyrrolidine-2-carboxamide]	> 30 nM			
Cc1ncsc1-c1ccc([C@H](C)NC(=O)[C@@H]2C[C@@H](O)CN2C(=O)[C@@H](c2cc(N3CCC(CN4CCC(O[C@H]5C[C@H](N6CCOC7(CCN(c8cc(-c9ccccc9O)nnc8N)CC7)C6)C5)CC4)CC3)no2)C(C)C)cc1 [compound 618, (2S,4R)-1-((R)-2-(3-(4-((4-((1r,3r)-3-(9-(3-amino-6-(2-hydroxyphenyl)pyridazin-4-yl)-1-oxa-4,9-diazaspiro[5.5]undecan-4-yl)cyclobutoxy)piperidin-1-yl)methyl)piperidin-1-yl)isoxazol-5-yl)-3-methylbutanoyl)-4-hydroxy-N-((S)-1-(4-(4-methylthiazol-5-yl)phenyl)ethyl)pyrrolidine-2-carboxamide]	< 2.5 nM	> 75%		
Cc1ncsc1-c1ccc([C@H](C)NC(=O)[C@@H]2C[C@@H](O)CN2C(=O)[C@H](c2cc(OCCC3CCN(C[C@H]4C[C@H](N5CCC(C(C)n6cc(-c7cc(-c8ccccc8O)nnc7N)cn6)CC5)C4)CC3)no2)C(C)C)cc1 (stereo partly drawn) [compound 619, (2S,4R)-1-((2S)-2-(3-(2-(1-(((1r,3S)-3-(4-(1-(4-(3-amino-6-(2-hydroxyphenyl)pyridazin-4-yl)-1H-pyrazol-1-yl)ethyl)piperidin-1-yl)cyclobutyl)methyl)piperidin-4-yl)ethoxy)isoxazol-5-yl)-3-methylbutanoyl)-4-hydroxy-N-((S)-1-(4-(4-methylthiazol-5-yl)phenyl)ethyl)pyrrolidine-2-carboxamide]	> 30 nM			
CC(C)[C@H](C(=O)N1C[C@H](O)C[C@H]1C(=O)N[C@@H](C)c1ccc(-n2ccnc2N)cc1)c1cc(N2CCC(CN3CCC(O[C@H]4C[C@H](Oc5cc(N6C7CCC6CN(c6cc(-c8ccccc8O)nnc6N)C7)ccn5)C4)CC3)CC2)no1 [compound 620, (2S,4R)-N-((S)-1-(4-(2-amino-1H-imidazol-1-yl)phenyl)ethyl)-1-((2S)-2-(3-(4-((4-((1r,3r)-3-((4-(3-(3-amino-6-(2-hydroxyphenyl)pyridazin-4-yl)-3,8-diazabicyclo[3.2.1]octan-8-yl)pyridin-2-yl)oxy)cyclobutoxy)piperidin-1-yl)methyl)piperidin-1-yl)isoxazol-5-yl)-3-methylbutanoyl)-4-hydroxypyrrolidine-2-carboxamide]	> 30 nM			
CC(C)[C@@H](C(=O)N1C[C@H](O)C[C@H]1C(=O)N[C@@H](C)c1ccc(-n2ccnc2N)cc1)c1cc(N2CCC(CN3CCC(O[C@H]4C[C@H](Oc5cc(N6C7CCC6CN(c6cc(-c8ccccc8O)nnc6N)C7)ccn5)C4)CC3)CC2)no1 [compound 621, (2S,4R)-N-((S)-1-(4-(2-amino-1H-imidazol-1-yl)phenyl)ethyl)-1-((2R)-2-(3-(4-((4-((1r,3r)-3-((4-(3-(3-amino-6-(2-hydroxyphenyl)pyridazin-4-yl)-3,8-diazabicyclo[3.2.1]octan-8-yl)pyridin-2-yl)oxy)cyclobutoxy)piperidin-1-yl)methyl)piperidin-1-yl)isoxazol-5-yl)-3-methylbutanoyl)-4-hydroxypyrrolidine-2-carboxamide]	< 2.5 nM	> 75%		
CC(C)[C@@H](C(=O)N1C[C@H](O)C[C@H]1C(=O)N[C@@H](C)c1ccc(-c2ccnn2C)cc1)c1cc(N2CCC(CN3CCC(O[C@H]4C[C@H](Oc5cc(N6C7CCC6CN(c6cc(-c8ccccc8O)nnc6N)C7)ccn5)C4)CC3)CC2)no1 [compound 622, (2S,4R)-1-((2R)-2-(3-(4-((4-((1r,3r)-3-((4-(3-(3-amino-6-(2-hydroxyphenyl)pyridazin-4-yl)-3,8-diazabicyclo[3.2.1]octan-8-yl)pyridin-2-yl)oxy)cyclobutoxy)piperidin-1-yl)methyl)piperidin-1-yl)isoxazol-5-yl)-3-methylbutanoyl)-4-hydroxy-N-((S)-1-(4-(1-methyl-1H-pyrazol-5-yl)phenyl)ethyl)pyrrolidine-2-carboxamide]	< 2.5 nM	> 75%		
Cc1ncsc1-c1ccc([C@H](C)NC(=O)[C@@H]2C[C@@H](O)CN2C(=O)[C@H](c2cc(N3CCC4(CC3)CN(C[C@H]3C[C@H](Oc5cc(N6C7CCC6CN(c6cc(-c8ccccc8O)nnc6N)C7)ccn5)C3)CCO4)no2)C(C)C)cc1 [compound 623, (2S,4R)-1-((2S)-2-(3-(4-(((1r,3S)-3-((4-(3-(3-amino-6-(2-hydroxyphenyl)pyridazin-4-yl)-3,8-diazabicyclo[3.2.1]octan-8-yl)pyridin-2-yl)oxy)cyclobutyl)methyl)-1-oxa-4,9-diazaspiro[5.5]undecan-9-yl)isoxazol-5-yl)-3-methylbutanoyl)-4-hydroxy-N-((S)-1-(4-(4-methylthiazol-5-yl)phenyl)ethyl)pyrrolidine-2-carboxamide]	> 30 nM			
Cc1ncsc1-c1ccc([C@H](C)NC(=O)[C@@H]2C[C@@H](O)CN2C(=O)[C@@H](c2cc(N3CCC4(CC3)CN(C[C@H]3C[C@H](Oc5cc(N6C7CCC6CN(c6cc(-c8ccccc8O)nnc6N)C7)ccn5)C3)CCO4)no2)C(C)C)cc1 [compound 624, (2S,4R)-1-((2R)-2-(3-(4-(((1r,3R)-3-((4-(3-(3-amino-6-(2-hydroxyphenyl)pyridazin-4-yl)-3,8-diazabicyclo[3.2.1]octan-8-yl)pyridin-2-yl)oxy)cyclobutyl)methyl)-1-oxa-4,9-diazaspiro[5.5]undecan-9-yl)isoxazol-5-yl)-3-methylbutanoyl)-4-hydroxy-N-((S)-1-(4-(4-methylthiazol-5-yl)phenyl)ethyl)pyrrolidine-2-carboxamide]	< 2.5 nM	> 75%		
Cc1ncsc1-c1ccc([C@H](C)NC(=O)[C@@H]2C[C@@H](O)CN2C(=O)[C@H](c2cc(N3CCC(CN4CCC(O[C@H]5C[C@H](Oc6cc(/C=C/c7cc(-c8ccccc8O)nnc7N)ccn6)C5)CC4)CC3)no2)C(C)C)cc1 [compound 625, (2S,4R)-1-((S)-2-(3-(4-((4-((1r,3r)-3-((4-((E)-2-(3-amino-6-(2-hydroxyphenyl)pyridazin-4-yl)vinyl)pyridin-2-yl)oxy)cyclobutoxy)piperidin-1-yl)methyl)piperidin-1-yl)isoxazol-5-yl)-3-methylbutanoyl)-4-hydroxy-N-((S)-1-(4-(4-methylthiazol-5-yl)phenyl)ethyl)pyrrolidine-2-carboxamide]	> 30 nM			
Cc1ncsc1-c1ccc([C@H](C)NC(=O)[C@@H]2C[C@@H](O)CN2C(=O)[C@@H](c2cc(N3CCC(CN4CCC(O[C@H]5C[C@H](Oc6cc(/C=C/c7cc(-c8ccccc8O)nnc7N)ccn6)C5)CC4)CC3)no2)C(C)C)cc1 [compound 626, (2S,4R)-1-((R)-2-(3-(4-((4-((1r,3r)-3-((4-((E)-2-(3-amino-6-(2-hydroxyphenyl)pyridazin-4-yl)vinyl)pyridin-2-yl)oxy)cyclobutoxy)piperidin-1-yl)methyl)piperidin-1-yl)isoxazol-5-yl)-3-methylbutanoyl)-4-hydroxy-N-((S)-1-(4-(4-methylthiazol-5-yl)phenyl)ethyl)pyrrolidine-2-carboxamide]			< 2.5 nM	> 75%
Cc1ncsc1-c1ccc([C@H](C)NC(=O)[C@@H]2C[C@@H](O)CN2C(=O)[C@@H](c2cc(OCCN3CC[C@@H](O[C@H]4C[C@H](Oc5cc(N6C7CCC6CN(c6cc(-c8ccccc8O)nnc6N)C7)ccn5)C4)C[C@@H]3C)no2)C(C)C)cc1 [compound 627, (2S,4R)-1-((2R)-2-(3-(2-((2S,4R)-4-((1r,3R)-3-((4-(3-(3-amino-6-(2-hydroxyphenyl)pyridazin-4-yl)-3,8-diazabicyclo[3.2.1]octan-8-yl)pyridin-2-yl)oxy)cyclobutoxy)-2-methylpiperidin-1-yl)ethoxy)isoxazol-5-yl)-3-methylbutanoyl)-4-hydroxy-N-((S)-1-(4-(4-methylthiazol-5-yl)phenyl)ethyl)pyrrolidine-2-carboxamide]			< 2.5 nM	> 75%
